According to patent US11945798B2, “Substituted aminopyridine compounds as EGFR inhibitors” (YUHAN CORPORATION, priority 2021, dated 2024):
Read-outs that look alike come from different tables or passages of the source.

Assays:
[1] = molecular target: EGFR del19/C797S (Homo sapiens, UniProt P00533, C797S/DEL746-750); experiment: Biochemical EGFR kinase assay (Lance Ultra TR-FRET), del19/C797S
Procedure: (§1) Biochemical EGFR kinase assays were conducted using Lance Ultra time-resolved fluorescence resonance energy transfer (TR-FRET) technology from Perkin-Elmer. Compounds of the invention were initially diluted to 20 mM in 100% DMSO for storage and made into kinase buffer solution to create a compound concentration ranging from 0.003 μM and 10 μM.
(§2) Each kinase reactions were incubated at room temperature for 1 hour and then stopped by the addition of 4 μL of stop solution (10 mM EDTA). The specific Europium-labeled-anti-phosphopeptide antibody (PerkinElmer, AD0069) diluted in LANCE detection buffer was then added to a final concentration of 2 nM. After 60 minutes incubation at room temperature the LANCE signal was measured on an EnVision Multilabel Reader (Perkin-Elmer). Excitation wavelength was set at 320 nm and emission monitored at 615 nm (donor) and 665 nm (acceptor). The IC50 values were determined using GraphPad prism software (GraphPad Software, Inc., San Diego, CA, USA).

[2] = molecular target: EGFR del19/T790M/C797S (Homo sapiens, UniProt P00533, C797S/DEL746-750/T790M); experiment: Biochemical EGFR kinase assay (Lance Ultra TR-FRET), del19/T790M/C797S
Procedure: as §1, §2

[3] = molecular target: EGFR wildtype (WT) (Homo sapiens, UniProt P00533); experiment: Biochemical EGFR kinase assay (Lance Ultra TR-FRET), wildtype
Procedure: as §1, §2

[4] = molecular target: EGFR L858R/C797S (Homo sapiens, UniProt P00533, C797S/L858R); experiment: Biochemical EGFR kinase assay (Lance Ultra TR-FRET), L858R/C797S
Procedure: as §1, §2

[5] = molecular target: EGFR L858R/T790M/C797S (Homo sapiens, UniProt P00533, C797S/L858R/T790M); experiment: Biochemical EGFR kinase assay (Lance Ultra TR-FRET), L858R/T790M/C797S
Procedure: as §1, §2

[6] = read-out: IC50 del19/C797S (nM) 100 μM ATP, 100 μM ATP
[7] = read-out: IC50 WT (nM) 100 μM ATP, 100 μM ATP
[8] = read-out: IC50 L858R/C797S (nM) 100 μM ATP, 100 μM ATP
[9] = Km ATP, read-out: IC50 del19/C797S (nM) Km ATP
[10] = Km ATP, read-out: IC50 L858R/T790M/C797S (nM) Km ATP
[11] = Km ATP, read-out: IC50 del19/T790M/C797S (nM) Km ATP
[12] = Km ATP, read-out: IC50 WT (nM) Km ATP
[13] = Km ATP, read-out: IC50 L858R/C797S (nM) Km ATP
[14] = IC50 del19/C797S (nM) 100 μM ATP, 100 μM ATP
[15] = IC50 L858R/T790M/C797S (nM) 100 μM ATP, 100 μM ATP
[16] = IC50 WT (nM) 100 μM ATP, 100 μM ATP
[17] = IC50 L858R/C797S (nM) 100 μM ATP, 100 μM ATP
[18] = IC50 del19/T790M/C797S (nM) 100 μM ATP, 100 μM ATP

Row | Molecule | IC50 [1, 9] | IC50 [5, 10] | IC50 [2, 11] | IC50 [3, 12] | IC50 [4, 13] | further results
1 | 6-((2-(1-(Cyclopropylsulfonyl)-1H-pyrazol-4-yl)pyrimidin-4-yl)amino)-N-(2-fluoroethyl)-4-(((1R,3S)-3-(hydroxymethyl)cyclopentyl)amino)nicotinamide [Example 75] | – | – | – | – | – | IC50 [1, 6]: 14.5 nM; IC50 ([2]; read-out: IC50 del19/T790M/C797S (nM) 100 μM ATP, 100 μM ATP): 0.7 nM; IC50 [3, 7]: > 10000 nM; IC50 [4, 8]: 30.5 nM
2 | C[C@@H](CCO)Nc1cc(Nc2ccnc(-c3cnn(S(=O)(=O)C4CC4)c3)n2)ncc1C(=O)C1CC1 [Example 8, (S)-Cyclopropyl(6-((2-(1-(cyclopropylsulfonyl)-1H-pyrazol-4-yl)pyrimidin-4-yl)amino)-4-((4-hydroxybutan-2-yl)amino)pyridin-3-yl)methanone] | 61.6 nM | 1.4 nM | 0.4 nM | 471 nM | 292 nM | –
3 | O=C(c1cnc(Nc2ccnc(-c3cnn(S(=O)(=O)C4CC4)c3)n2)cc1NCCCO)C1CC1 [Example 9, Cyclopropyl(6-((2-(1-(cyclopropylsulfonyl)-1H-pyrazol-4-yl)pyrimidin-4-yl)amino)-4-((3-hydroxypropyl)amino)pyridin-3-yl)methanone] | 70.7 nM | 2.5 nM | 0.7 nM | 528 nM | 479 nM | –
4 | O=C(c1cnc(Nc2ccnc(-c3cnn(S(=O)(=O)C4CC4)c3)n2)cc1N[C@H]1CC[C@H](O)C1)C1CC1 [Example 24, Cyclopropyl(6-((2-(1-(cyclopropylsulfonyl)-1H-pyrazol-4-yl)pyrimidin-4-yl)amino)-4-(((1S,3S)-3-hydroxycyclopentyl)amino)pyridin-3-yl)methanone] | – | – | – | – | – | IC50 [1, 14]: 70.9 nM; IC50 [5, 15]: 4.4 nM; IC50 [3, 16]: > 10000 nM; IC50 [4, 17]: 79.1 nM
5 | CC(C)Nc1cc(Nc2ccnc(-c3cnn(S(=O)(=O)C4CC4)c3)n2)ncc1F [Example 41, N^2-(2-(1-(Cyclopropylsulfonyl)-1H-pyrazol-4-yl)pyrimidin-4-yl)-5-fluoro-N^4-isopropylpyridine-2,4-diamine] | 47.7 nM | 5.6 nM | – | 145 nM | 444 nM | –
6 | O=C(c1cnc(Nc2ccnc(-c3cnn(S(=O)(=O)C4CC4)c3)n2)cc1N[C@H]1CC[C@@H](NCCF)CC1)C(F)F [Example 51, 1-(6-((2-(1-(Cyclopropylsulfonyl)-1H-pyrazol-4-yl)pyrimidin-4-yl)amino)-4-(((1s,4s)-4-((2-fluoroethyl)amino)cyclohexyl)amino)pyridin-3-yl)-2,2-difluoroethan-1-one] | 45.4 nM | 1.1 nM | – | 1240 nM | 47.1 nM | IC50 [1, 14]: 18.9 nM; IC50 [5, 15]: 4.5 nM; IC50 [3, 16]: > 10000 nM; IC50 [4, 17]: 407 nM
7 | CN(C)CCNC1CCC(Nc2cc(Nc3ccnc(-c4cnn(S(=O)(=O)C5CC5)c4)n3)ncc2C(=O)C2CC2)CC1 (stereo not drawn) [Example 53, Cyclopropyl(6-((2-(1-(cyclopropylsulfonyl)-1H-pyrazol-4-yl)pyrimidin-4-yl)amino)-4-((4-((2-(dimethylamino)ethyl)amino)cyclohexyl)amino)pyridin-3-yl)methanone] | – | – | – | – | – | IC50 [1, 14]: 1.8 nM; IC50 [5, 15]: 0.5 nM; IC50 [2, 18]: 0.5 nM; IC50 [3, 16]: 1900 nM
8 | CC(C)Nc1cc(Nc2ccnc(-c3cnn(S(=O)(=O)C4CC4)c3)n2)ncc1C1=CCCCO1 [Example 84, N^2-(2-(1-(Cyclopropylsulfonyl)-1H-pyrazol-4-yl)pyrimidin-4-yl)-5-(3,4-dihydro-2H-pyran-6-yl)-N^4-isopropylpyridine-2,4-diamine] | – | – | – | – | – | IC50 [1, 14]: 107 nM; IC50 [2, 18]: 4.5 nM; IC50 [3, 16]: > 10000 nM; IC50 [4, 17]: 523 nM
9 | Cyclopropyl(6-((2-(1-(cyclopropylsulfonyl)-1H-pyrazol-4-yl)pyrimidin-4-yl)amino)-4-((4-((4-methylpiperazin-1-yl)amino)cyclohexyl)amino)pyridin-3-yl)methanone [Example 54] | – | – | – | – | – | IC50 [1, 6]: 66.1 nM; IC50 [3, 7]: > 10000 nM; IC50 [4, 8]: 33.8 nM

Continued, in another order:

Row | IC50 [1, 9] | IC50 [5, 10] | IC50 [2, 11] | IC50 [3, 12] | IC50 [4, 13] | Molecule | further results
10 | 4.5 nM | 1.1 nM | 3.8 nM | 566 nM | 84.3 nM | CC(C)Nc1cc(Nc2ccnc(-c3cnn(S(=O)(=O)C4CC4)c3)n2)ncc1C(=O)C1CC1 [Example 1, Cyclopropyl(6-((2-(1-(cyclopropylsulfonyl)-1H-pyrazol-4-yl)pyrimidin-4-yl)amino)-4-(isopropylamino)pyridin-3-yl)methanone] | –
11 | 213 nM | 10.5 nM | 1 nM | 123 nM | – | CC(C)Oc1cc(Nc2ccnc(-c3cnn(S(=O)(=O)C4CC4)c3)n2)ncc1NC(=O)C1CC1 [Example 42, N-(6-((2-(1-(Cyclopropylsulfonyl)-1H-pyrazol-4-yl)pyrimidin-4-yl)amino)-4-isopropoxypyridin-3-yl)cyclopropanecarboxamide] | –
12 | 205 nM | 3.1 nM | 0.9 nM | 751 nM | – | CCCNc1cc(Nc2ccnc(-c3cnn(S(=O)(=O)C4CC4)c3)n2)ncc1C(C)=O [Example 45, 1-(6-((2-(1-(Cyclopropylsulfonyl)-1H-pyrazol-4-yl)pyrimidin-4-yl)amino)-4-(propylamino)pyridin-3-yl)ethan-1-one] | –
13 | 17.2 nM | 1.1 nM | – | 1170 nM | 42.8 nM | CC(C)(O)[C@H]1CC[C@@H](Nc2cc(Nc3ccnc(-c4cnn(S(=O)(=O)C5CC5)c4)n3)ncc2C(=O)C(F)F)CC1 [Example 50, 1-(6-((2-(1-(Cyclopropylsulfonyl)-1H-pyrazol-4-yl)pyrimidin-4-yl)amino)-4-(((1s,4s)-4-(2-hydroxypropan-2-yl)cyclohexyl)amino)pyridin-3-yl)-2,2-difluoroethan-1-one] | IC50 [1, 14]: 8.8 nM; IC50 [5, 15]: 6.9 nM; IC50 [3, 16]: > 10000 nM; IC50 [4, 17]: 157 nM
14 | – | 3.5 nM | 5.4 nM | 430 nM | 115 nM | CN(C)C[C@H]1CC[C@H](CNc2cc(Nc3ccnc(-c4cnn(C5CC5)c4)n3)ncc2C(=O)C2CC2)CC1 [Example 60, Cyclopropyl(6-((2-(1-cyclopropyl-1H-pyrazol-4-yl)pyrimidin-4-yl)amino)-4-((((1r,4r)-4-((dimethylamino)methyl)cyclohexyl)methyl)amino)pyridin-3-yl)methanone] | –
15 | – | – | 5.7 nM | 415 nM | 123 nM | CN(C)C[C@H]1CC[C@H](CNc2cc(Nc3ccnc(-c4cnn(CC5CC5)c4)n3)ncc2C(=O)C2CC2)CC1 [Example 61, Cyclopropyl(6-((2-(1-(cyclopropylmethyl)-1H-pyrazol-4-yl)pyrimidin-4-yl)amino)-4-((((1r,4r)-4-((dimethylamino)methyl)cyclohexyl)methyl)amino)pyridin-3-yl)methanone] | –
16 | 52.5 nM | 5.8 nM | 0.7 nM | 389 nM | – | CC(=O)c1cnc(Nc2ccnc(-c3cnn(S(=O)(=O)C4CC4)c3)n2)cc1OC[C@H]1CC[C@H](CN(C)C)CC1 [Example 65, 1-(6-((2-(1-(Cyclopropylsulfonyl)-1H-pyrazol-4-yl)pyrimidin-4-yl)amino)-4-(((1r,4r)-4-((dimethylamino)methyl)cyclohexyl)methoxy)pyridin-3-yl)ethan-1-one] | –
17 | 7.2 nM | – | 1 nM | 2040 nM | 45.8 nM | CC(C)C(=O)NC[C@H]1CC[C@H](CNc2cc(Nc3ccnc(-c4cnn(S(=O)(=O)C5CC5)c4)n3)ncc2C(=O)C2CC2)CC1 [Example 72, N-(((1r,4r)-4-(((5-(Cyclopropanecarbonyl)-2-((2-(1-(cyclopropylsulfonyl)-1H-pyrazol-4-yl)pyrimidin-4-yl)amino)pyridin-4-yl)amino)methyl)cyclohexyl)methyl)isobutyramide] | –
18 | 16.1 nM | 3.1 nM | 17.4 nM | 691 nM | – | CC(NCC1CCC(CNc2cc(Nc3ccnc(-c4cnn(S(=O)(=O)C5CC5)c4)n3)ncc2C(=O)C2CC2)CC1)C(F)F (stereo not drawn) [Example 73, Cyclopropyl(6-((2-(1-(cyclopropylsulfonyl)-1H-pyrazol-4-yl)pyrimidin-4-yl)amino)-4-((((1r,4r)-4-(((1,1-difluoropropan-2-yl)amino)methyl)cyclohexyl)methyl)amino)pyridin-3-yl)methanone] | –
